Type in all cases: cell-based
One assay has as its target T1, AKT1 E17K (Homo sapiens, UniProt P31749, E17K).
T1 construct: expressed in transfected cells; host or cells: HEK293
Description: Live cell AKT1 E17K target engagement by NanoBRET competitive probe displacement. To be noted: HEK293 cells transfected with kinase-NanoLuciferase fusion, 2 h at 37° C. In short, it runs like this:
(§1)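 HEK293 cells transiently expressing kinase–NanoLuc fusions overnight; treated with serial compound dilutions plus fluorescent ATP-competitive tracer at ~EC50, 2 h at 37 °C. BRET ratio E600/E460 read after substrate and extracellular luciferase inhibitor; IC50 from log(inhibitor) vs response Hill fit.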
On the technique in general: BRET reads energy transfer from a luciferase to a nearby fluorophore.

The next assay has as its target T2, AKT2 (Homo sapiens, UniProt P31751).
T2 construct: expressed in transfected cells; host or cells: HEK293
Description: Live cell AKT2 target engagement by NanoBRET competitive probe displacement. To be noted: HEK293 cells transfected with kinase-NanoLuciferase fusion, 2 h at 37° C. In short, it runs like this:
as §1

The next assay addresses T3, AKT1 WT (Homo sapiens, UniProt P31749).
T3 construct: expressed in transfected cells; host or cells: HEK293
As to the kind of experiment: Live cell AKT1 WT target engagement by NanoBRET competitive probe displacement. To be noted: HEK293 cells transfected with kinase-NanoLuciferase fusion, 2 h at 37° C. In short, it runs like this:
as §1

For assay [1], the system named is LAPC4 prostate cancer cells. As to the kind of experiment: Antiproliferative effects in LAPC4 cells (CellTiter Glo). The following applies: LAPC4 cells (AKT1 E17K allele), read-out: LAPC4 proliferation IC50. In short, it runs like this: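 LAPC4 prostate cancer cells carrying AKT1 E17K, grown in IMDM with 12% FBS, were seeded at 1,000 cells/well and exposed to compound dilutions for 72 h. Viability was read as intracellular ATP by CellTiter Glo luminescence, and IC50 was fitted with a log(inhibitor) vs. response Hill equation.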
For orientation: Cellular ATP, detected with luciferase, serves as a proxy for viable cell number.

Consider 17 compounds from US12570655B2, “Cysteine covalent modifiers of AKT1 and uses thereof” (Terremoto Biosciences, Inc., priority 2023, dated 2026).

Molecules are shown by their SMILES. Read-outs that look alike come from different tables or passages of the source. Bounds are passed on as bounds.

T2 sequence (P31751 whole entry): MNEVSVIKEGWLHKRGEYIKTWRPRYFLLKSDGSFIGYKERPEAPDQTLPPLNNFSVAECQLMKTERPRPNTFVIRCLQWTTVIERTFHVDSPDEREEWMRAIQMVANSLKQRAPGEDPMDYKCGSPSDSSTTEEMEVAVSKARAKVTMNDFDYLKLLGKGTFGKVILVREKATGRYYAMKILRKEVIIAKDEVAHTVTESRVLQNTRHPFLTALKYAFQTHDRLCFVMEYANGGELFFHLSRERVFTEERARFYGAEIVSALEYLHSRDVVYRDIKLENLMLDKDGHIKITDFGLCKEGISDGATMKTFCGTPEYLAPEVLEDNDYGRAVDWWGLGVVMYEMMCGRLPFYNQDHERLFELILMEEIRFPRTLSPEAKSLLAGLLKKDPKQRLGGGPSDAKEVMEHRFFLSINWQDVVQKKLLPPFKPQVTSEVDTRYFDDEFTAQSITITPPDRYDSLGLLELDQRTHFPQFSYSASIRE
T3 sequence (P31749 whole entry): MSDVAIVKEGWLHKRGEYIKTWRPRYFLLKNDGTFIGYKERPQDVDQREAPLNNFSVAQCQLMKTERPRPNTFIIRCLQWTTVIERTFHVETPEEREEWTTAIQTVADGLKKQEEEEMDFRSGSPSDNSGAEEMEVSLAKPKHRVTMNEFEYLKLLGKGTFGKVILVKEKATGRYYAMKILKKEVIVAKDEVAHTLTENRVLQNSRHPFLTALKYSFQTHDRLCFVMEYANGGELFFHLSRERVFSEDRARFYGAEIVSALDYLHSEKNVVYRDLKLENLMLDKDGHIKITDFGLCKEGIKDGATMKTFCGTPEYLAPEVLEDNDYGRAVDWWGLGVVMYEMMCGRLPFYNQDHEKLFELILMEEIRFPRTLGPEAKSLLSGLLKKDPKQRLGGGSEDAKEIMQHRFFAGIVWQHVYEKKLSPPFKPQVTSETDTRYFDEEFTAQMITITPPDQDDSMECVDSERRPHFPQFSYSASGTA
T1 sequence (P31749 whole entry E17K): as the sequence (P31749 whole entry) above, with E17K counted along it

Take `C=CC(=O)N1CCC(N[C@H]2CCc3cc(-n4c(-c5cccnc5N)nc5ccc(C6CC6)nc54)ccc32)C(F)C1` (single isomer, unassigned) [Example 177, 1-((3*,4*)-4-(((S)-5-(2-(2-aminopyridin-3-yl)-5-cyclopropyl-3H-imidazo[4,5-b]pyridin-3-yl)-2,3-dihydro-1H-inden-1-yl)amino)-3-fluoropiperidin-1-yl)prop-2-en-1-one]: the IC50 was 36.9 nM at AKT1 E17K, 114 nM at AKT2, 1520 nM at AKT1 WT and 416 nM in assay [1] (72 h).
For the compound `Nc1ncccc1-c1nc2ccc(-n3cccn3)nc2n1-c1ccc2c(c1)CC[C@@H]2NC1CCN(C(=O)[C@H]2CO2)CC1` [Example 122, 3-{3-[(1S)-1-({1-[(2R)-oxirane-2-carbonyl]piperidin-4-yl}amino)-2,3-dihydro-1H-inden-5-yl]-5-(pyrazol-1-yl)imidazo[4,5-b]pyridin-2-yl}pyridin-2-amine], the IC50 came to 112 nM on AKT1 E17K; 305 nM at AKT2; 41.3 nM on AKT1 WT; 116 nM in assay [1] (Homo sapiens, LAPC4, 72 h).
Regarding `C=CC(=O)N1CCC(N[C@H]2CCc3cc(-n4c(-c5cccnc5N)nc5ccc(-n6cccn6)nc54)ccc32)C[C@H]1C` (single isomer, unassigned) [Example 63, 1-((2R,4*)-4-(((S)-5-(2-(2-aminopyridin-3-yl)-5-(1H-pyrazol-1-yl)-3H-imidazo[4,5-b]pyridin-3-yl)-2,3-dihydro-1H-inden-1-yl)amino)-2-methylpiperidin-1-yl)prop-2-en-1-one], the IC50 came to 47.5 nM on AKT1 E17K, 248 nM at AKT2, 24.1 nM at AKT1 WT and 124 nM in assay [1] (72 h).
On to `C=CC(=O)N1CCC(N[C@H]2CCc3cc(-n4c(-c5cccnc5N)nc5ccc(-c6nnc(C)s6)nc54)ccc32)CC1` [Example 257, (S)-1-(4-((5-(2-(2-aminopyridin-3-yl)-5-(5-methyl-1,3,4-thiadiazol-2-yl)-3H-imidazo[4,5-b]pyridin-3-yl)-2,3-dihydro-1H-inden-1-yl)amino)piperidin-1-yl)prop-2-en-1-one], for which the IC50 at AKT1 E17K was found to be 13.8 nM; at AKT2, 73 nM; on AKT1 WT, 432 nM; in assay [1] (Homo sapiens, LAPC4, 72 h), 103 nM.
With `C=CC(=O)N1CCC(N[C@H]2CCc3cc(-n4c(-c5cccnc5N)nc5ccc(C6CC6)nc54)ccc32)C[C@H]1C` (single isomer, unassigned) [Example 211, 1-((2R,4*)-4-(((S)-5-(2-(2-aminopyridin-3-yl)-5-cyclopropyl-3H-imidazo[4,5-b]pyridin-3-yl)-2,3-dihydro-1H-inden-1-yl)amino)-2-methylpiperidin-1-yl)prop-2-en-1-one], the IC50 at AKT1 E17K was 23.7 nM; on AKT2, 79.8 nM; on AKT1 WT it was 1100 nM; in assay [1] (72 h), 319 nM.
On to `C=CC(=O)N1CCC(N[C@H]2CCc3cc(-n4c(-c5cccnc5N)nc5ccc(C6CCC6)nc54)ccc32)CC1` [Example 195, 1-(4-{[(1S)-5-[2-(2-aminopyridin-3-yl)-5-cyclobutylimidazo[4,5-b]pyridin-3-yl]-2,3-dihydro-1H-inden-1-yl]amino}piperidin-1-yl)prop-2-en-1-one], for which the IC50 at AKT1 E17K was 7.45 nM; on AKT2 it was 80.8 nM; on AKT1 WT, 415 nM; in assay [1] (Homo sapiens, LAPC4, 72 h), 319 nM.
The matching figures for `C=CS(=O)(=O)N1CCC(N[C@H]2CCc3cc(-n4c(-c5cccnc5N)nc5ccc(-n6cccn6)nc54)ccc32)CC1` [Example 61, 3-{3-[(1S)-1-{[1-(ethenesulfonyl)piperidin-4-yl]amino}-2,3-dihydro-1H-inden-5-yl]-5-(pyrazol-1-yl)imidazo[4,5-b]pyridin-2-yl}pyridin-2-amine]: 28.6 nM, 52.4 nM, 19 nM and 72.4 nM.
Turning to `C=CC(=O)N1CCC(N[C@H]2CCc3cc(-n4c(-c5cccnc5N)nc5ccc(-n6ccc(C7CCOCC7)n6)nc54)ccc32)CC1` [Example 321, 1-(4-{[(1S)-5-[2-(2-aminopyridin-3-yl)-5-[3-(oxan-4-yl)pyrazol-1-yl]imidazo[4,5-b]pyridin-3-yl]-2,3-dihydro-1H-inden-1-yl]amino}piperidin-1-yl)prop-2-en-1-one], the IC50 on AKT1 E17K was determined as 7.19 nM; at AKT2, 24.2 nM; at AKT1 WT, 158 nM; in assay [1] (Homo sapiens, LAPC4, 72 h), 80.7 nM.
Turning to `C=CC(=O)N1C[C@H]2COC[C@@H](C1)C2N[C@H]1CCc2cc(-n3c(-c4cccnc4N)nc4ccc(-n5cccn5)nc43)ccc21` (single isomer, unassigned) [Example 72, 1-((1R,5S,9*)-9-(((S)-5-(2-(2-aminopyridin-3-yl)-5-(1H-pyrazol-1-yl)-3H-imidazo[4,5-b]pyridin-3-yl)-2,3-dihydro-1H-inden-1-yl)amino)-3-oxa-7-azabicyclo[3.3.1]nonan-7-yl)prop-2-en-1-one], the IC50 on AKT1 E17K stood at 75.2 nM; on AKT2 it was 289 nM; at AKT1 WT it was 15.8 nM; in assay [1] (72 h), 493 nM.
With `C=CC(=O)N1CCC(N[C@H]2CCc3cc(-n4c(-c5cccnc5N)nc5ccc(-n6cccn6)nc54)ccc32)C[C@@H]1COC` (single isomer, unassigned) [Example 164, 1-((2R,4*)-4-(((S)-5-(2-(2-aminopyridin-3-yl)-5-(1H-pyrazol-1-yl)-3H-imidazo[4,5-b]pyridin-3-yl)-2,3-dihydro-1H-inden-1-yl)amino)-2-(methoxymethyl)piperidin-1-yl)prop-2-en-1-one], the IC50 is 475 nM on AKT1 E17K, 4100 nM at AKT2, 58 nM at AKT1 WT and 489 nM in assay [1] (72 h).
For `C=CC(=O)N1CCC(N[C@H]2CCc3cc(-n4c(-c5cccnc5N)nc5ccc(C6CC6)nc54)ccc32)C(F)C1` (single isomer, unassigned) [Example 176, 1-((3*,4*)-4-(((S)-5-(2-(2-aminopyridin-3-yl)-5-cyclopropyl-3H-imidazo[4,5-b]pyridin-3-yl)-2,3-dihydro-1H-inden-1-yl)amino)-3-fluoropiperidin-1-yl)prop-2-en-1-one], the IC50 on AKT1 E17K is 37.8 nM; at AKT2, 484 nM; at AKT1 WT it was 967 nM; in assay [1] (Homo sapiens, LAPC4, 72 h), 433 nM.
As for `C=CC(=O)N1CCC(N[C@H]2CCc3cc(-n4c(-c5cccnc5N)nc5ccc(-n6ccc(C7CCCC7)n6)nc54)ccc32)CC1` [Example 306, 1-(4-{[(1S)-5-[2-(2-aminopyridin-3-yl)-5-(3-cyclopentylpyrazol-1-yl)imidazo[4,5-b]pyridin-3-yl]-2,3-dihydro-1H-inden-1-yl]amino}piperidin-1-yl)prop-2-en-1-one], the IC50 at AKT1 E17K worked out at 15.7 nM; at AKT2, 72.3 nM; at AKT1 WT, 186 nM; in assay [1] (Homo sapiens, LAPC4, 72 h) it was 203 nM.
In the same order, the values of `C=CC(=O)Nc1ccccc1C(=O)N[C@H]1CCc2cc(-n3c(-c4cccnc4N)nc4ccc(-n5cccn5)nc43)ccc21` [Example 1, (S)-2-acrylamido-N-(5-(2-(2-aminopyridin-3-yl)-5-(1H-pyrazol-1-yl)-3H-imidazo[4,5-b]pyridin-3-yl)-2,3-dihydro-1H-inden-1-yl)benzamide] are 12.2 nM, 35 nM, 11.7 nM and 25.4 nM.
The matching figures for `C=CC(=O)N1CCC(N[C@H]2CCc3cc(-n4c(-c5cccnc5N)nc5ccc(-c6nccs6)nc54)ccc32)CC1` [Example 159, 1-(4-{[(1S)-5-[2-(2-aminopyridin-3-yl)-5-(1,3-thiazol-2-yl)imidazo[4,5-b]pyridin-3-yl]-2,3-dihydro-1H-inden-1-yl]amino}piperidin-1-yl)prop-2-en-1-one]: 56.2 nM, 146 nM, 20 nM and 71.2 nM.
In the same order, the values of `C=CC(=O)N1CCC(N[C@H]2CCc3cc(-n4c(-c5cccnc5N)nc5ccc(-c6nnc(C)o6)nc54)ccc32)CC1` [Example 256, (S)-1-(4-((5-(2-(2-aminopyridin-3-yl)-5-(5-methyl-1,3,4-oxadiazol-2-yl)-3H-imidazo[4,5-b]pyridin-3-yl)-2,3-dihydro-1H-inden-1-yl)amino)piperidin-1-yl)prop-2-en-1-one] are 186 nM, 394 nM, 1690 nM and 809 nM.
With `C=CC(=O)N1CC2CC[C@@H]1CC2N[C@H]1CCc2cc(-n3c(-c4cccnc4N)nc4ccc(-n5cccn5)nc43)ccc21` (single isomer, unassigned) [Example 131, 1-[(1R,4R,5*)-5-{[(1S)-5-[2-(2-aminopyridin-3-yl)-5-(pyrazol-1-yl)imidazo[4,5-b]pyridin-3-yl]-2,3-dihydro-1H-inden-1-yl]amino}-2-azabicyclo[2.2.2]octan-2-yl]prop-2-en-1-one], the IC50 on AKT1 E17K is above 1000 nM; on AKT2, 9530 nM; on AKT1 WT, above 1000 nM; in assay [1] (Homo sapiens, LAPC4, 72 h) it was 1840 nM.
In the case of `C=CC(=O)N1CCC(N[C@H]2CCc3cc(-n4c(-c5cccnc5N)nc5ccc(-n6ccc(C7CCC7)n6)nc54)ccc32)CC1` [Example 283, 1-(4-{[(1S)-5-[2-(2-aminopyridin-3-yl)-5-(3-cyclobutylpyrazol-1-yl)imidazo[4,5-b]pyridin-3-yl]-2,3-dihydro-1H-inden-1-yl]amino}piperidin-1-yl)prop-2-en-1-one], the IC50 at AKT1 E17K came to 9.03 nM; at AKT2 it was 42 nM; at AKT1 WT, 133 nM; in assay [1] (Homo sapiens, LAPC4, 72 h), 835 nM.
